Experimental findings from patent US20220280607A1, “Treatment of Heart Defects and Conditions in Pediatric Patients” (University of Pittsburgh - Of the Commonwealth System of …, priority 2019, published 2022) are described below.

SMILES strings stand for the structures.

Assay [1] concerns human fetal cardiomyocytes. The assay can be described thus: Cytokinesis failure in cultured human fetal cardiomyocytes (β-adrenergic receptor signaling pathway studies). Format: cell-based. How it is done: Primary cardiomyocyte culture experiments: Neonatal (mouse or rat) cardiomyocytes or human fetal cardiomyocytes were plated in 4-well chamber slides pre-coated with fibronectin (10 μg/ml) at a density of 200,000 cells/well and cultured with DMEM/high glucose (for mouse and rat cardiomyocytes) or IMDM (for fetal human cardiomyocytes) containing 10% fetal bovine serum (FBS) and recombinant neuregulin 1 (rNRG1, 100 nanograms per milliliter (ng/ml)) overnight. All treatments and BrdU (30 micromolar (μM)) were added on the next day.
β-adrenergic receptor signaling pathway studies: Forskolin (10 μM), propranolol (10 μM), dobutamine (10 μM), or a combination of propranolol (10 μM) and dobutamine (10 μM) were added to the culture from day 1 to day 3. The cells were collected for examining gene expression or immunofluorescence microscopy at day 3.
Cardiomyocytes cultured on glass surfaces. […] The BrdU-positive nuclei, cell-cell boundaries (Pan-Cadherin antibody), and cardiomyocyte markers (α-actinin or troponin I antibody) were labeled by immunofluorescence. The stained cells were imaged under Nikon confocal microscope. The binucleated cardiomyocytes and all BrdU-positive cardiomyocytes were quantified using Fiji software.

Assay [2] relates to cardiomyocytes from infants with ToF/PS. The assay can be described thus: ToF/PS myocardium tissue (organotypic) culture: binucleated BrdU-labeled cardiomyocytes. In kind it is cell-based, human. As to conditions: propranolol 10 μM + dobutamine 10 μM, ToF/PS organotypic cultures, FIG. 14E. How it is done: ToF/PS myocardium tissue culture: Discarded myocardium samples were collected during ToF/PS surgery, cut into ˜1 mm^3 tissue blocks, and cultured in IMDM media containing 10% FBS, recombinant neuregulin 1 (rNRG1, 100 ng/ml), and BrdU (30 μM) for 6 days. Samples were treated with forskolin (10 μM), propranolol (10 μM), dobutamine (10 μM), or a combination of propranolol (10 μM) and dobutamine (10 μM).
Cultured ToF/PS myocardium. Cardiomyocytes were isolated from cultured myocardium with the fixation-digestion method. After denaturing the DNA with 2N HCl and neutralization with 2 Normal (N) sodium hydroxide (NaOH), immunofluorescence antibody labeling was performed in solution. The proportion of binucleated and BrdU-positive was quantified with a Nikon A1R microscope.

On to `CC(C)NCC(O)COc1cccc2ccccc12` (stereo not drawn) [propranolol, 1-naphthalen-1-yloxy-3-(propan-2-ylamino)propan-2-ol], for which the Ect2-positive midbodies result in assay [1] (human fetal cardiomyocytes in cytokinesis, immunofluorescence microscopy, FIG. 14D) is listed as “increased”. Further, in assay [1] (propranolol 10 μM + dobutamine 10 μM, human fetal cardiomyocytes, FIG. 14C), the “block of the dobutamine-stimulated increase in cardiomyocyte cytokinesis failure” value is given as “completely”. Also, the “inhibition of the dobutamine-stimulated increase in binucleated cardiomyocytes” value in assay [2] is given as “completely”.
